From US7794994B2 (Kemeta, LLC, priority 2001, dated 2010)
Several values for one entry are separate records, joined by “and”; a condition that tells them apart may be missing. Equal entries are not always repeated.

Experiments:
[1] = system: S-ADH from X. autotrophicus strain Py2; test: Secondary alcohol dehydrogenase NADH oxidation spectrophotometric assay; type: biochemical, Xanthobacter autotrophicus strain Py2; conditions: for Relative S-ADH Activity (%) X. Py2, alcohol oxidation: alcohol oxidation rates, pH 7.6, 2.5 mM substrate, 0.2 mM NAD+, 2-propanol = 100, NA = no activity detected; for specific activity, alcohol oxidation: at pH 7.8; for Relative S-ADH Activity (%) X. Py2, ketone reduction: ketone reduction rates, pH 6.2, 2.5 mM substrate, 0.2 mM NADH, acetone = 100; for inhibition of S-ADH activity: saturating acetone, alcohol at about 13-fold over the Km value for acetone, data not shown
Experimental: (§1) Assays were performed in 2 mL quartz cuvettes and contained NAD(H) (0.2 mM), potassium phosphate buffer (25 mM), and a source of enzyme (cell-free extracts, column fractions, or purified enzyme) in a total reaction volume of 1 mL at pH 6.2 ([…]) at 30° C. Assays were pre-incubated for 1.5 min. at 30° C. with all assay components except substrate. Assays were initiated by addition of substrate (2.5 mM) and monitored over time by measuring the change in absorbance at 340 nm (∈340 of 6.22 mM^−1·cm^−1 for NADH).
Data analysis. Kinetic constants (Km and Vmax) were calculated by fitting initial rate data to the Michaelis-Menten equation and using the software KaleidaGraph Fourth Edition, (Synergy Software, Reading, Pa.).

S-ADH from strain IP-1 = test: S-ADH spectrophotometric assay, partially purified S-ADH of isolate IP-1; type: biochemical, isopropanol-grown bacterial strain TDCC IP-1; conditions: for Relative S-ADH Activity (%) IP-1, alcohol oxidation: alcohol oxidation rates, pH 7.6, 2.5 mM substrate, 0.2 mM NAD+, 2-propanol = 100, NA = no activity detected; for Relative S-ADH Activity (%) IP-1, ketone reduction: ketone reduction rates, pH 6.2, 2.5 mM substrate, 0.2 mM NADH, acetone = 100
Experimental: Protein purifications. […] Secondary alcohol dehydrogenase (S-ADH) from X. autotrophicus Py2 was purified via the following protocol. Cell-free extracts (380 mL) of isopropanol-grown X. autotrophicus Py2 (150 g) were prepared as described above, and applied to a 5×15 cm column of DEAE-Sepharose FAST FLOW (Diethylaminoethyl cross-linked agarose bead material; Catalog number 17-0709-10, Amersham Pharmacia Biotech, Piscataway, N.J.)) equilibrated in buffer A (25 mM MOPS (3-(N-morpholino)propanesulfonic acid), pH 7.6, 5% glycerol, 1 mM dithiothreitol) at a flow rate of 10 mL/min. After loading, the column was washed with […] buffer A and developed with a 2400 mL linear gradient of 90-290 mM KCl in buffer A. Fractions containing S-ADH activity were pooled and dialyzed against 2 L of 25 mM potassium phosphate (pH 6.2) containing 5% glycerol (buffer B) for 16 h at 4° C. […] After washing the column with 30 mL of buffer B, S-ADH was eluted with 20 mL of buffer A containing 10 mM NAD^+. Fractions containing S-ADH were then dialyzed against 2 L of buffer A for 16 h at 4° C., concentrated by ultrafiltration (using a YM30 ultrafiltration membrane; catalog no. 13722, from Millipore, Bedford, Mass.), and frozen in liquid nitrogen. Partially purified S-ADH from bacterial screen cultures was prepared as follows: cell-free extracts from 1 to 5 g of cell paste were prepared as described above and applied to a 5 mL HI TRAP Q column (quaternary, tetraethylammonium, cross-linked agarose bead material for use as an anion exchange matrix; catalog number 17-1153-01, Amersham Pharmacia Biotech) equilibrated in 100 mM MOPS, pH 7.6, containing 5% (v/v) glycerol (buffer C). The column was washed with 10 mL buffer C and developed with a 100 mL linear gradient of 0 to 100 mM NaCl in buffer C. Fractions containing S-ADH activity were pooled, concentrated to 0.5 mL using a 30 kDa MWCO (“molecular weight cut-off”) centrifugal membrane (catalog number UFV4BTK25, Millipore), and stored at −80° C.
as §1

S-ADH from T. brockii = molecular target: T1, S-ADH from T. brockii (Thermoanaerobacter brockii, UniProt P14941); test: S-ADH spectrophotometric assay, T. brockii S-ADH; type: biochemical, Thermoanaerobium brockii; conditions: for Relative S-ADH Activity (%) T. brockii, alcohol oxidation: alcohol oxidation rates, pH 7.6, 2.5 mM substrate, 0.2 mM NADP+, 2-propanol = 100, NA = no activity detected; for Relative S-ADH Activity (%) T. brockii, ketone reduction: ketone reduction rates, pH 6.2, 2.5 mM substrate, 0.2 mM NADPH, acetone = 100
T1 sequence (P14941 1-352): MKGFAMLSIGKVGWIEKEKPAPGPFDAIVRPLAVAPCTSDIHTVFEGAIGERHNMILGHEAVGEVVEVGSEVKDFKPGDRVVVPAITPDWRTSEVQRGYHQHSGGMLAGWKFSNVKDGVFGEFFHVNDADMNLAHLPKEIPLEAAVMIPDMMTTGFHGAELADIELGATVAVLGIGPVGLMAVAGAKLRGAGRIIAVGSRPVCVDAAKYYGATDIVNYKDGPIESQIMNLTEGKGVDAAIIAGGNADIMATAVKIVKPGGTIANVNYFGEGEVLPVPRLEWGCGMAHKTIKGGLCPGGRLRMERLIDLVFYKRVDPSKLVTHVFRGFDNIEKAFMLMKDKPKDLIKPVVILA
Experimental: […] Assays were pre-incubated for 1.5 min. at 30° C. with all assay components except substrate. Assays were initiated by addition of substrate (2.5 mM) and monitored over time by measuring the change in absorbance at 340 nm (∈340 of 6.22 mM^−1·cm^−1 for NADH).

S-ADH from C. boidinii = test: S-ADH spectrophotometric assay, C. boidinii S-ADH; type: biochemical, Candida boidinii; conditions: pH 7.6, 5 mM substrate; for Relative S-ADH Activity (%) C. boidinii, alcohol oxidation: alcohol oxidation rates, 0.2 mM NAD+, 2-propanol = 100; for Relative S-ADH Activity (%) C. boidinii, ketone reduction: ketone reduction rates, 0.2 mM NADH, acetone = 100
Experimental: as §1, with “Assays were initiated by addition of substrate (2.5 mM) and monitored over time by measuring the change in absorbance at 340 nm (∈340 of 6.22 mM^−1·cm^−1 for NADH).” left out

SMILES	Relative S-ADH Activity (%) X. Py2, alcohol oxidation [1] [%]	specific activity, alcohol oxidation [1]	Relative S-ADH Activity (%) IP-1, alcohol oxidation (S-ADH from strain IP-1) [%]	Relative S-ADH Activity (%) T. brockii, alcohol oxidation (S-ADH from T. brockii) [%]	Relative S-ADH Activity (%) C. boidinii, alcohol oxidation (S-ADH from C. boidinii) [%]	Relative S-ADH Activity (%) X. Py2, ketone reduction [1] [%]	Km ([1]; reduction of acetone to isopropanol, NADH at fixed saturating concentration, read-out: apparent Km)	Relative S-ADH Activity (%) IP-1, ketone reduction (S-ADH from strain IP-1) [%]	Relative S-ADH Activity (%) T. brockii, ketone reduction (S-ADH from T. brockii) [%]	Relative S-ADH Activity (%) C. boidinii, ketone reduction (S-ADH from C. boidinii) [%]	inhibition of S-ADH activity [1]	S-ADH activity in the presence of ethanol ([1]; 41 mM ethanol, equivalent to 500 ppm (v/v) gas phase ethanol)
CC(C)O [2-Propanol]	100	24±1.8 μmol alcohol oxidized min^−1mg^−1 protein	100	100	100							
CC(C)=O [Acetone, acetone]						100	~144 µM and 144 µM	100	100	100		
CCC(C)O (stereo not shown) [2-Butanol]	88	21±3.6 μmol alcohol oxidized min^−1mg^−1 protein and 37±1.1 μmol alcohol oxidized min^−1mg^−1 protein	147	121	100							
CCC(C)=O [2-Butanone]						170		192	67	175		
CCCO [1-Propanol]		No activity	2		9						no inhibition was observed	
CCO [Ethanol]		No activity	9		9						no inhibition was observed	82-85%
